Test results taken from patent US5002963A, “3-indolepyruvic acid derivatives and pharmaceutical use thereof” (priority 1987, dated 1991).
Structures can show the parent of a compound that is named as a salt.

How the values were obtained:
NMDA induced convulsions [1] = conditions: cited from earlier work
Brain homogenate = assay: Test 2: transformation into kynurenic acid in tissue homogenates (brain); format: in vitro ADME, rats; conditions: for Amount of kynurenic acid formed: brain homogenate
Procedure: (§1) Male rats fasting for 16 hours were sacrificed and their organs were taken and homogenized in 5 volumes of 0,05 M phosphate buffer pH 7,4+0,14 M KCl.
(§2) Small amounts of homogenate (0,8 ml) were additioned with various amounts of 3-indolepyruvic acid or the derivatives thereof, dissolved into a buffer solution, and with a system for the production of free radicals, consisting of ascorbic acid (final 10^-5 M), FeCl3 (final 10^-6 M) and H2 O2 (final 10^-4 M). It was stirred at 37° C., then the reaction was blocked.

excitatory aminoacids = conditions: cited from earlier work; for agonism of excitatory aminoacids (in words): central nervous system of mammals
[2] = tested on: audiogenic convulsions in DBA2 mice; conditions: known effect of kynurenic acid; cited from earlier work
[3] = Test 1: transformation of 3-indolepyruvic acid into kynurenic acid in vitro, within a non enzymatic system; format: physicochemical; conditions: from 2 mg, HCl 0,1 M, O2 and light
Procedure: When 3-indole pyruvic acid or a derivative thereof of formula 1 is incubated in a slightly acid solution (HCl 0,1 M), in the presence of oxidising agents (O2) and light, in time the formation of small amounts of kynurenic acid is observed. Particularly starting from 2 mg 3-indolepyruvic acid, 0,5 micrograms are obtained after 2 hours and 0,7 micrograms after 4 hours.

kynurenic acid [4] = assay: Test 3: effect on the content of kynurenic acid after administration of IPA in rat; format: in vivo; conditions: 3 hours, ± standard error
NMDA induced convulsions [5] = assay: Test 7: NMDA induced convulsions; format: in vivo, Mice of Albino Swiss strain
Procedure: Mice of Albino Swiss strain were treated with saline (controls) or with IPA (1 g/Kg i.p.) one hour before receiving a toxic dose of NMDA (154 mg/Kg i.p.).

Stability = format: physicochemical
[6] = tested on: audiogenic convulsions in DBA2 mice; assay: Test 6: audiogenic convulsions in DBA2 mice; format: in vivo; conditions: for Animals with convulsions, % / Animals with convulsions: one hour before the test; for Animals with convulsions: number/total; for protective action against tonic convulsions induced by sound stimulations (in words): DBA2 mice
Procedure: To evaluate whether an increase in kynurenic acid in the brain after administration of IPA could have a protective action on neurons stressed by excitatory aminoacids, the experimental pattern of inducing convulsions in a particular strain of mice (DBA2) by selected sound stimulations was followed. […] The substances were injected intravenously one hour before the test. Then the number of animals showing tonic convulsions was measured.

kynurenic acid [7] = assay: Test 5: time course of the kynurenic acid levels after administration of IPA; format: in vivo, rats; conditions: 250 mg/Kg i.p.; for kynurenic acid level, Brain / kynurenic acid level, Heart / kynurenic acid level, Kidney / kynurenic acid level, Liver: ± standard error
Text: (§3) For the measurement of such levels after administration of 3-indolepyruvic acid or a derivative thereof, a system was set up based on ultraviolet detection of the compounds separated by high pressure liquid chromatography.
(§4) Briefly, after sacrific of the animal, some of the principal organs were taken and homogenized with alkaline ethanol. Proteins and cell remains were removed by centrifugation, whilst the over natant was adsorbed on Bio-Rad AG 1×8 resin. After washing with water it was eluted with formic acid. It was then passed on Bio-Rad AG 50W-×8 resin, eluted with 3% ammonia, dried and retaken with a small amount of water.
(§5) The sample thus obtained was injected into a Waters apparatus for high pressure liquid chromatography, using a C18 10 micron column and eluting with 0,02 m citric acid containing 10% of methanol. The kynurenic acid levels were extrapolated by the calibration line of the acid and reading at 234 nm.
Male rats, in lots of five animals each, were treated i.p. with 250 mg/Kg IPA and were sacrificed at different times, evaluating the levels of kynurenic acid present in various organs.
The results are reported in picomoles/g±standard error.

kynurenic acid [8] = assay: Test 3: effect on the content of kynurenic acid after administration of IPA in rat; format: in vivo; conditions: for increase in the levels of kynurenic acid in the tissues (in words): rat, in vivo
Text: as §3, §4, §5
Male rats were treated with saline solution (controls) or with various doses of IPA, which was injected 3 hours before sacrifice. Each lot comprised 10 animals.
The results are reported in picomoles/g of tissue (or ml of blood)±standard error.

Kidney homogenate = assay: Test 2: transformation into kynurenic acid in tissue homogenates (kidney); format: in vitro ADME, rats
Procedure: as §1, §2

[9] = tested on: tryptophan and kynurenic acid in the brain of rats; conditions: rat, in vivo; for KYN/TRP × 10^3: ip, 250 mg/kg
Text: as §3, §4, §5
Male rats were treated with saline solution (controls), IPA or tryptophan i.p. one hour before sacrifice. Each lot was of six animals.
The reported values are in picomoles/g for kynurenic acid and picomoles/mg for tryptophan.

Water solubility = format: physicochemical
[10] = 1 g/Kg i.p. one hour before NMDA 154 mg/Kg i.p., number/total
[11] = 100 mg/Kg i.p., 3 hours, ± standard error
[12] = 250 mg.Kg i.p., 3 hours, ± standard error
[13] = 500 mg.Kg i.p., 3 hours, ± standard error

CN[C@H](CC(=O)O)C(=O)O [NMDA, N-methyl-D-aspartic acid]
neurotoxic effect (in words) (NMDA induced convulsions [1]; activation of receptors of the excitatory aminoacids): powerful neurotoxic effect

COC(=O)C(Cc1ccccc1)NC(=O)C(=O)Cc1c[nH]c2ccccc12 (stereo not shown) [IPE-PHE-Ome, 3indolepyruvic acid phenylalanine methylester]
Amount of kynurenic acid formed (Brain homogenate; amount not given, 30'): 75 ng | Amount of kynurenic acid formed (Brain homogenate; amount not given, 60'): 82 ng | Amount of kynurenic acid formed (Brain homogenate; amount not given, 120'): 92 ng

COC(=O)C(Cc1ccc(O)cc1)NC(=O)C(=O)Cc1c[nH]c2ccccc12 (stereo not shown) [IPE-TYR-Ome, 3indolepyruvic acid tyrosine methylester]
Amount of kynurenic acid formed (Brain homogenate; amount not given, 30'): 44 ng | Amount of kynurenic acid formed (Brain homogenate; amount not given, 60'): 48 ng | Amount of kynurenic acid formed (Brain homogenate; amount not given, 120'): 79 ng

Nc1ccccc1C(=O)CC(N)C(=O)O (stereo not shown) [kynurenine]
agonism of excitatory aminoacids (in words) (excitatory aminoacids): powerful agonists of excitatory aminoacids

O=C(O)c1cc(=O)c2ccccc2[nH]1 [kynurenic acid]
inhibition of the excitatory effects of quinolinic acid, N-methyl-D-aspartate and other aminoacids (in words) (excitatory aminoacids): powerful inhibitor | protection against the toxicity due to NMDA (in words) (NMDA induced convulsions [1]; well known effect of kynurenic acid): protects against the toxicity due to NMDA | protection against audiogenic convulsions (in words) [2]: protective against convulsions

O=C(O)C(=O)Cc1c[nH]c2ccccc12 [3-indolepyruvic acid]
kynurenic acid obtained ([3]; after 2 hours): 0,5 micrograms | kynurenic acid obtained ([3]; after 4 hours): 0,7 micrograms | kynurenic acid content, Blood (kynurenic acid [4]; 100 mg/Kg per os): 87 ± 8 picomoles/ml of blood | kynurenic acid content, Brain (kynurenic acid [4]; 100 mg/Kg per os): 28 ± 2 picomoles/g of tissue | kynurenic acid content, Liver (kynurenic acid [4]; 100 mg/Kg per os): 275 ± 25 picomoles/g of tissue | kynurenic acid content, Liver (kynurenic acid [4]; 250 mg.Kg i.p.): 547 ± 35 picomoles/g of tissue | kynurenic acid content, Blood (kynurenic acid [4]; 250 mg/Kg per os): 120 ± 12 picomoles/ml of blood | kynurenic acid content, Brain (kynurenic acid [4]; 250 mg/Kg per os): 38 ± 3 picomoles/g of tissue | kynurenic acid content, Liver (kynurenic acid [4]; 250 mg/Kg per os): 485 ± 40 picomoles/g of tissue | kynurenic acid content, Liver (kynurenic acid [4]; 500 mg.Kg i.p.): 2860 ± 300 picomoles/g of tissue | Deaths (NMDA induced convulsions [5]; [10]): 3/9 | Tonic convulsions (NMDA induced convulsions [5]; [10]): 5/9 | protection against convulsions and death induced by NMDA (in words) (NMDA induced convulsions [5]; mouse, in vivo): able to protect mice against both convulsions and death induced by NMDA | stability (in words) (Stability): highly instable | Animals with convulsions, % ([6]; 200 mg/Kg intravenously): 33% | Animals with convulsions ([6]; 200 mg/Kg intravenously): 4/12 | protective action against tonic convulsions induced by sound stimulations (in words) [6]: good protective action | kynurenic acid levels over time in the organs (in words) (kynurenic acid [7]): high increase of kynurenic acid in all the organs under test (maximum in kidney). The levels remain high even after 4 hours from administration | kynurenic acid level, Brain (kynurenic acid [7]; 1 hour): 39 ± 4 picomoles/g | kynurenic acid level, Heart (kynurenic acid [7]; 1 hour): 181 ± 18 picomoles/g | kynurenic acid level, Kidney (kynurenic acid [7]; 1 hour): 2593 ± 250 picomoles/g | kynurenic acid level, Liver (kynurenic acid [7]; 1 hour): 827 ± 50 picomoles/g | kynurenic acid level, Brain (kynurenic acid [7]; 2 hours): 32 ± 3 picomoles/g | kynurenic acid level, Heart (kynurenic acid [7]; 2 hours): 177 ± 20 picomoles/g | kynurenic acid level, Kidney (kynurenic acid [7]; 2 hours): 2395 ± 200 picomoles/g | kynurenic acid level, Liver (kynurenic acid [7]; 2 hours): 464 ± 40 picomoles/g | kynurenic acid level, Brain (kynurenic acid [7]; 3 hours): 38 ± 4 picomoles/g | kynurenic acid level, Heart (kynurenic acid [7]; 3 hours): 104 ± 12 picomoles/g | kynurenic acid level, Kidney (kynurenic acid [7]; 3 hours): 1480 ± 150 picomoles/g | kynurenic acid level, Liver (kynurenic acid [7]; 3 hours): 235 ± 5 picomoles/g | kynurenic acid level, Brain (kynurenic acid [7]; 4 hours): 28 ± 3 picomoles/g | kynurenic acid level, Heart (kynurenic acid [7]; 4 hours): 100 ± 11 picomoles/g | kynurenic acid level, Kidney (kynurenic acid [7]; 4 hours): 1200 ± 150 picomoles/g | kynurenic acid level, Liver (kynurenic acid [7]; 4 hours): 122 ± 10 picomoles/g | transformation into kynurenic acid in brain homogenate (in words) (Brain homogenate): able to transform into kynurenic acid in the brain | Amount of kynurenic acid formed (Brain homogenate; 1.6 mg, 30'): 165 ng | Amount of kynurenic acid formed (Brain homogenate; 1.6 mg, 60'): 280 ng | Amount of kynurenic acid formed (Brain homogenate; 1.6 mg, 120'): 380 ng | kynurenic acid content, Blood (kynurenic acid [8]; [11]): 62 ± 3 picomoles/ml of blood | kynurenic acid content, Brain (kynurenic acid [8]; [11]): 24 ± 1 picomoles/g of tissue | kynurenic acid content, Liver (kynurenic acid [8]; [11]): 240 ± 20 picomoles/g of tissue | kynurenic acid content, Blood (kynurenic acid [8]; [12]): 164 ± 10 picomoles/ml of blood | kynurenic acid content, Brain (kynurenic acid [8]; [12]): 32 ± 3 picomoles/g of tissue | kynurenic acid content, Blood (kynurenic acid [8]; [13]): 442 ± 20 picomoles/ml of blood | kynurenic acid content, Brain (kynurenic acid [8]; [13]): 110 ± 10 picomoles/g of tissue | kynurenic acid in brain, times higher than the controls (kynurenic acid [8]; 500 mg/Kg): six | increase in the levels of kynurenic acid in the tissues (in words) (kynurenic acid [8]): dose-dependent | Amount of kynurenic acid formed (Kidney homogenate; final 0.8 mg, 30'): 160 ng | Amount of kynurenic acid formed (Kidney homogenate; final 0.8 mg, 60'): 190 ng | Amount of kynurenic acid formed (Kidney homogenate; final 0.8 mg, 120'): 208 ng | Amount of kynurenic acid formed (Kidney homogenate; final 1.6 mg, 30'): 232 ng | Amount of kynurenic acid formed (Kidney homogenate; final 1.6 mg, 60'): 280 ng | Amount of kynurenic acid formed (Kidney homogenate; final 1.6 mg, 120'): 315 ng | Amount of kynurenic acid formed (Kidney homogenate; final 4 mg, 30'): 185 ng | Amount of kynurenic acid formed (Kidney homogenate; final 4 mg, 60'): 221 ng | Amount of kynurenic acid formed (Kidney homogenate; final 4 mg, 120'): 270 ng | precursor of cerebral kynurenic acid (in words) [9]: selective precursor of cerebral kynurenic acid | KYN/TRP × 10^3 [9]: 0.40

COC(=O)C(=O)Cc1c[nH]c2ccccc12 [IPA-Methylester, 3-indolepyruvic acid methyl ester]
Amount of kynurenic acid formed (Brain homogenate; amount not given, 30'): 48 ng | Amount of kynurenic acid formed (Brain homogenate; amount not given, 60'): 65 ng | Amount of kynurenic acid formed (Brain homogenate; amount not given, 120'): 83 ng

O=C(O)c1cccnc1C(=O)O [quinolinic acid]
agonism of excitatory aminoacids (in words) (excitatory aminoacids): powerful agonists of excitatory aminoacids

O=C(O)C(=O)Cc1c[nH]c2ccccc12 [Mg^++ IPA salt, Mg salt of 3-indolepyruvic acid]
solubility in water (in words) (Water solubility): water soluble | Animals with convulsions, % ([6]; intravenously, dose not given): 29% | Animals with convulsions ([6]; intravenously, dose not given): 4/14

N[C@@H](Cc1c[nH]c2ccccc12)C(=O)O [Tryptophan, tryptophan, reference compound]
Animals with convulsions, % ([6]; 200 mg/Kg intravenously): 80% | Animals with convulsions ([6]; 200 mg/Kg intravenously): 8/10 | protective action against tonic convulsions induced by sound stimulations (in words) [6]: no effective action | transformation into kynurenic acid in brain homogenate (in words) (Brain homogenate): never transformed into kynurenic acid | Amount of kynurenic acid formed (Brain homogenate; 1.6 mg, 30'): 0 ng | Amount of kynurenic acid formed (Brain homogenate; 1.6 mg, 60'): 0 ng | Amount of kynurenic acid formed (Brain homogenate; 1.6 mg, 120'): 0 ng | increase in the levels of kynurenic acid in the tissues (in words) (kynurenic acid [8]): does not produce such an effect | Amount of kynurenic acid formed (Kidney homogenate; final 1.6 mg, 30'): 55 ng | Amount of kynurenic acid formed (Kidney homogenate; final 1.6 mg, 60'): 82 ng | Amount of kynurenic acid formed (Kidney homogenate; final 1.6 mg, 120'): 111 ng | KYN/TRP × 10^3 [9]: 0.16
